Tests used:
[1] = tested on: Lactobacillus rennini (DSM 20253); assay: Antimicrobial action of licoricidin in soy sauce at various pH (Test Example 5); type: cell-based; set-up: key: A: The bacterial count decreases to less than 10% of the bacterial count of the control group.; B: The bacterial count decreases to 10% or more and less than 50% of the bacterial count of the control group.; C: The bacterial count decreases to 50% or more and less than 100% of the bacterial count of control group.; D: The bacterial count is the same as the bacterial count of the control group; conditions: salt 4% (w/v)
Description: Commercially available whole soybean soy sauce (produced by Kikkoman Corporation) was electrodialyzed and then concentrated under reduced pressure to obtain soy sauce at a salt concentration of 0% (w/v) and an alcohol concentration of 0% (v/v). Then, salt and/or alcohol was added to the above-mentioned obtained soy sauce, and hydrochloric acid or an aqueous sodium hydroxide solution was then added to adjust the pH to a desired pH. Germfree purified water was added, and the mixture was then heat-treated to produce soy sauce at the salt concentration, the alcohol concentration, and the pH shown in the following Table 17.
Licoricidin (produced by ChemFaces) was added to each of the obtained soy sauces to concentrations of 1 ppm, 5 ppm, 10 ppm, 25 ppm, and 50 ppm. Lactic acid bacteria (Lactobacillus rennini (DSM 20253)) were then added to 10^6 to 10^7 cells/mL and cultured at 30° C. for 7 days. After the culture, the number of lactic acid bacteria was measured using the GAM agar medium “Nissui”. Soy sauce to which licoricidin was not added was used as a control group, and the antimicrobial activity was evaluated in comparison with the number of lactic acid bacteria in the control group. The evaluation was performed using the same criterion as in Test Example 4.

[2] = tested on: Bacillus coagulans (IFO12714); assay: Antimicrobial action of licoricidin on flat sour bacteria in Japanese seasoned soup stock (Test Example 8); type: cell-based; set-up: key to Evaluation (antimicrobial activity by comparing the pHs): A: There is no change in pH as compared with the control.; B: The pH decreases as compared with the control; conditions: for pH: Japanese seasoned soup stock (salt 3% (w/v), alcohol 0.4% (v/v), pH 5.2), cultured at 45° C. for 7 days; for Evaluation (antimicrobial activity by comparing the pHs): Japanese seasoned soup stock
Description: Specifically, components contained in dried bonito was extracted with water; Koikuchi soy sauce (produced by Kikkoman Corporation), sugar, and salt were blended with the obtained extract; and the resulting mixture was heated to produce Japanese seasoned soup stock. The salt concentration of the obtained Japanese seasoned soup stock was 3% (w/v), the alcohol concentration was 0.4% (v/v), and the pH was 5.2.
Licoricidin (produced by ChemFaces) was added to the produced Japanese seasoned soup stock to concentrations of 1 ppm, 5 ppm, 10 ppm, 25 ppm, and 50 ppm. Flat sour bacteria (Bacillus coagulans (IFO12714)) were then added to 10^4 to 10^5 cells/mL and cultured at 45° C. for 7 days. Japanese seasoned soup stock to which licoricidin was not added was used as a control, and the antimicrobial activity was evaluated by comparing the pHs. The evaluation was performed using the following criterion.
• A: There is no change in pH as compared with the control. • B: The pH decreases as compared with the control.

COc1c(CC=C(C)C)c(O)cc2c1C[C@H](c1ccc(O)c(CC=C(C)C)c1O)CO2 [Licoricidin, 4-[(R)-7-hydroxy-5-methoxy-6-(3-methyl-2-butenyl)chroman-3-yl]-2-(3-methyl-2-butenyl)-1,3-benzenediol]
Antimicrobial activity ([1]; pH 4.2, alcohol 5% (v/v), licoricidin 1 ppm): C (The bacterial count decreases to 50% or more and less than 100% of the bacterial count of control group.)
Antimicrobial activity ([1]; pH 4.2, alcohol 5% (v/v), licoricidin 5 ppm): A (The bacterial count decreases to less than 10% of the bacterial count of the control group.)
Antimicrobial activity ([1]; pH 4.2, alcohol 5% (v/v), licoricidin 10 ppm): A (The bacterial count decreases to less than 10% of the bacterial count of the control group.)
Antimicrobial activity ([1]; pH 4.2, alcohol 5% (v/v), licoricidin 25 ppm): A (The bacterial count decreases to less than 10% of the bacterial count of the control group.)
Antimicrobial activity ([1]; pH 4.2, alcohol 5% (v/v), licoricidin 50 ppm): A (The bacterial count decreases to less than 10% of the bacterial count of the control group.)
Antimicrobial activity ([1]; pH 4.6, alcohol 0% (v/v), licoricidin 1 ppm): D
Antimicrobial activity ([1]; pH 4.6, alcohol 0% (v/v), licoricidin 5 ppm): D
Antimicrobial activity ([1]; pH 4.6, alcohol 0% (v/v), licoricidin 10 ppm): A (The bacterial count decreases to less than 10% of the bacterial count of the control group.)
Antimicrobial activity ([1]; pH 4.6, alcohol 0% (v/v), licoricidin 25 ppm): A (The bacterial count decreases to less than 10% of the bacterial count of the control group.)
Antimicrobial activity ([1]; pH 4.6, alcohol 0% (v/v), licoricidin 50 ppm): A (The bacterial count decreases to less than 10% of the bacterial count of the control group.)
Antimicrobial activity ([1]; pH 4.6, alcohol 5% (v/v), licoricidin 1 ppm): B (The bacterial count decreases to 10% or more and less than 50% of the bacterial count of the control group.)
Antimicrobial activity ([1]; pH 4.6, alcohol 5% (v/v), licoricidin 5 ppm): A (The bacterial count decreases to less than 10% of the bacterial count of the control group.)
Antimicrobial activity ([1]; pH 4.6, alcohol 5% (v/v), licoricidin 10 ppm): A (The bacterial count decreases to less than 10% of the bacterial count of the control group.)
Antimicrobial activity ([1]; pH 4.6, alcohol 5% (v/v), licoricidin 25 ppm): A (The bacterial count decreases to less than 10% of the bacterial count of the control group.)
Antimicrobial activity ([1]; pH 4.6, alcohol 5% (v/v), licoricidin 50 ppm): A (The bacterial count decreases to less than 10% of the bacterial count of the control group.)
Antimicrobial activity ([1]; pH 5.0, alcohol 0% (v/v), licoricidin 1 ppm): B (The bacterial count decreases to 10% or more and less than 50% of the bacterial count of the control group.)
Antimicrobial activity ([1]; pH 5.0, alcohol 0% (v/v), licoricidin 5 ppm): A (The bacterial count decreases to less than 10% of the bacterial count of the control group.)
Antimicrobial activity ([1]; pH 5.0, alcohol 0% (v/v), licoricidin 10 ppm): A (The bacterial count decreases to less than 10% of the bacterial count of the control group.)
Antimicrobial activity ([1]; pH 5.0, alcohol 0% (v/v), licoricidin 25 ppm): A (The bacterial count decreases to less than 10% of the bacterial count of the control group.)
Antimicrobial activity ([1]; pH 5.0, alcohol 0% (v/v), licoricidin 50 ppm): A (The bacterial count decreases to less than 10% of the bacterial count of the control group.)
Antimicrobial activity ([1]; pH 5.0, alcohol 5% (v/v), licoricidin 1 ppm): C (The bacterial count decreases to 50% or more and less than 100% of the bacterial count of control group.)
Antimicrobial activity ([1]; pH 5.0, alcohol 5% (v/v), licoricidin 5 ppm): A (The bacterial count decreases to less than 10% of the bacterial count of the control group.)
Antimicrobial activity ([1]; pH 5.0, alcohol 5% (v/v), licoricidin 10 ppm): A (The bacterial count decreases to less than 10% of the bacterial count of the control group.)
Antimicrobial activity ([1]; pH 5.0, alcohol 5% (v/v), licoricidin 25 ppm): A (The bacterial count decreases to less than 10% of the bacterial count of the control group.)
Antimicrobial activity ([1]; pH 5.0, alcohol 5% (v/v), licoricidin 50 ppm): A (The bacterial count decreases to less than 10% of the bacterial count of the control group.)
Antimicrobial activity ([1]; pH 5.4, alcohol 0% (v/v), licoricidin 1 ppm): B (The bacterial count decreases to 10% or more and less than 50% of the bacterial count of the control group.)
Antimicrobial activity ([1]; pH 5.4, alcohol 0% (v/v), licoricidin 5 ppm): A (The bacterial count decreases to less than 10% of the bacterial count of the control group.)
Antimicrobial activity ([1]; pH 5.4, alcohol 0% (v/v), licoricidin 10 ppm): A (The bacterial count decreases to less than 10% of the bacterial count of the control group.)
Antimicrobial activity ([1]; pH 5.4, alcohol 0% (v/v), licoricidin 25 ppm): A (The bacterial count decreases to less than 10% of the bacterial count of the control group.)
Antimicrobial activity ([1]; pH 5.4, alcohol 0% (v/v), licoricidin 50 ppm): A (The bacterial count decreases to less than 10% of the bacterial count of the control group.)
Antimicrobial activity ([1]; pH 5.4, alcohol 5% (v/v), licoricidin 1 ppm): C (The bacterial count decreases to 50% or more and less than 100% of the bacterial count of control group.)
Antimicrobial activity ([1]; pH 5.4, alcohol 5% (v/v), licoricidin 5 ppm): A (The bacterial count decreases to less than 10% of the bacterial count of the control group.)
Antimicrobial activity ([1]; pH 5.4, alcohol 5% (v/v), licoricidin 10 ppm): A (The bacterial count decreases to less than 10% of the bacterial count of the control group.)
Antimicrobial activity ([1]; pH 5.4, alcohol 5% (v/v), licoricidin 25 ppm): A (The bacterial count decreases to less than 10% of the bacterial count of the control group.)
Antimicrobial activity ([1]; pH 5.4, alcohol 5% (v/v), licoricidin 50 ppm): A (The bacterial count decreases to less than 10% of the bacterial count of the control group.)
Antimicrobial activity ([1]; pH 5.8, alcohol 0% (v/v), licoricidin 1 ppm): D
Antimicrobial activity ([1]; pH 5.8, alcohol 0% (v/v), licoricidin 5 ppm): A (The bacterial count decreases to less than 10% of the bacterial count of the control group.)
Antimicrobial activity ([1]; pH 5.8, alcohol 0% (v/v), licoricidin 10 ppm): A (The bacterial count decreases to less than 10% of the bacterial count of the control group.)
Antimicrobial activity ([1]; pH 5.8, alcohol 0% (v/v), licoricidin 25 ppm): A (The bacterial count decreases to less than 10% of the bacterial count of the control group.)
Antimicrobial activity ([1]; pH 5.8, alcohol 0% (v/v), licoricidin 50 ppm): A (The bacterial count decreases to less than 10% of the bacterial count of the control group.)
Antimicrobial activity ([1]; pH 5.8, alcohol 5% (v/v), licoricidin 1 ppm): D
Antimicrobial activity ([1]; pH 5.8, alcohol 5% (v/v), licoricidin 5 ppm): D
Antimicrobial activity ([1]; pH 5.8, alcohol 5% (v/v), licoricidin 10 ppm): A (The bacterial count decreases to less than 10% of the bacterial count of the control group.)
Antimicrobial activity ([1]; pH 5.8, alcohol 5% (v/v), licoricidin 25 ppm): A (The bacterial count decreases to less than 10% of the bacterial count of the control group.)
Antimicrobial activity ([1]; pH 5.8, alcohol 5% (v/v), licoricidin 50 ppm): A (The bacterial count decreases to less than 10% of the bacterial count of the control group.)
pH ([2]; licoricidin 1 ppm): 4.1
pH ([2]; licoricidin 5 ppm): 4.1
pH ([2]; licoricidin 10 ppm): 5.3
pH ([2]; licoricidin 25 ppm): 5.3
pH ([2]; licoricidin 50 ppm): 5.2
Evaluation (antimicrobial activity by comparing the pHs) ([2]; licoricidin 1 ppm): B
Evaluation (antimicrobial activity by comparing the pHs) ([2]; licoricidin 5 ppm): B
Evaluation (antimicrobial activity by comparing the pHs) ([2]; licoricidin 10 ppm): A
Evaluation (antimicrobial activity by comparing the pHs) ([2]; licoricidin 25 ppm): A
Evaluation (antimicrobial activity by comparing the pHs) ([2]; licoricidin 50 ppm): A
Antimicrobial activity to flat sour bacteria ([2]; conclusion of Test Example 8): exhibited antimicrobial activity

Reference: patent US20230276831A1, “Food/Beverage Article” (Kikkoman Corporation, priority 2020, published 2023)
